The results in this text go back to patent US8435997B2, “Cysteine prodrugs to treat schizophrenia and drug addiction” (Marquette University, priority 2007, dated 2013).

Assay [1] deals with PCP-evoked deficits in pre-pulse inhibition. The experiment in a line: Prepulse inhibition of startle response, phencyclidine (PCP)-induced sensorimotor gating deficits. The class given is in vivo, rats. The following applies: for sensorimotor gating (inhibition of startle response by pre-pulse) after PCP: rats, 30 mg/kg po, 60 min prior to PCP 1 mg/kg SC, pre-pulse 2-15 db above background, FIG. 2.

In assay [2] the test system is extracellular glutamate in the prefrontal cortex. The assay can be described thus: Extracellular glutamate in the prefrontal cortex compared to baseline after prodrug administration. The class given is in vivo. The settings on record: rats; compound 7 30 mg/kg po (N=1) versus N-acetylcysteine 60 mg/kg IP (N=4); FIG. 1. The protocol: FIG. 1 is a bar graph depicting extracellular glutamate in the prefrontal cortex (compared to baseline) following administration of cysteine prodrugs N-acetylcysteine (60 mg/kg, IP; N=4) or compound 7 (30 mg/kg, po; N=1) in rats. […] Compound 7 was given to the animal orally, and thereby subjected to potential first-pass metabolism. Conversely, N-acetylcysteine was given IP in order to avoid extensive first pass metabolism that would occur following oral administration. Thus, compound 7 produced a larger relative increase in glutamate in rats as compared to NAC even though NAC was given in its preferred route of administration and at twice the concentration.

Assay [3] has as its system cocaine-induced reinstatement. The experiment in a line: Extinction/reinstatement paradigm, cocaine-induced reinstatement of lever pressing. The class given is in vivo. The settings on record: rats, cocaine 10 mg/kg IP. The source says: The extinction/reinstatement paradigm represents one of the most common paradigms used to screen for potential anticraving properties of novel pharmacotherapies. In the present experiments, rats were implanted with indwelling jugular catheters with an external port affixed slightly posterior to the rat's shoulder blades. Tubing is used to connect a syringe of cocaine to the external port of the indwelling catheter. Rats are then placed into standard operant chambers (Med Associates) and permitted to press a lever for an infusion of cocaine (0.5 mg/kg/200 microL, IV). Once behavior is stable, rats are permitted at least eleven 2-hr sessions to self-administer cocaine. Afterwards, the cocaine solution is replaced with saline in order to extinguish lever pressing. Once responding decreases to 10 or fewer lever presses/2 hr sessions for 3 out of 4 daily sessions, rats are tested for reinstatement (relapse). To do this, rats are placed into the operant chamber and vehicle or a cysteine/cystine prodrug (1-60 mg/kg, p.o.; N=2-12) is administered. Afterwards, rats then receive an injection of cocaine (10 mg/kg, IP). Responding is then assessed for 120 min.

Each structure is given as a SMILES string.

Regarding `O=C1CNC(=O)[C@H](CSSC[C@H]2NC(=O)CNC2=O)N1` [Compound 7, Bis[2,5-Piperazinedione, 3-(mercaptomethyl)-]], in assay [1], the “sensorimotor gating (inhibition of startle response by pre-pulse) after PCP” value is “significant improvement in sensorimotor gating relative to PCP controls and rats receiving NAC+PCP”. For the same compound, the “peak increase in extracellular glutamate in the prefrontal cortex (compared to baseline)” value in assay [2] is recorded as “much larger peak increase in glutamate”.
Turning to `CC(=O)N[C@@H](CS)C(=O)O` [N-acetylcysteine], the “cocaine-induced reinstatement (responding)” value in assay [3] (30 and 60 mg/kg IP, responding over 120 min, FIG. 8) is “significant reduction in cocaine-induced reinstatement”; in assay [3] (given orally, FIG. 9) it was “less effective when given orally”. The “restoration of inhibition of a startle response after PCP” value in assay [1] (infused directly into the rodent prefrontal cortex, 0-100 microM, FIG. 5) is recorded as “significantly restored inhibition of a startle response at each concentration tested”. Further, in assay [1] (intraperitoneal injection 60 min prior to testing, three prepulse stimulus intensities, FIG. 4), the “restoration of sensorimotor gating after PCP” value is reported as “failed to significantly restore sensorimotor gating at any of the three prepulse stimulus intensities”. Further, in assay [1] (oral administration 60 min prior to testing, FIG. 3), the “attenuation of deficits in prepulse inhibition produced by phencyclidine” value was “fails to significantly attenuate deficits in prepulse inhibition”. Also, the “sensorimotor gating (inhibition of startle response by pre-pulse) after PCP” value in assay [1] is given as “trend toward improved sensorimotor gating (p=0.1)”.
As to `CCOC1=NC(CS)C(OCC)=NC1` (centres unmarked) [Compound 5, (3,6-Diethoxy-2,5-dihydro-pyrazin-2-yl)-methanethiol], the “cocaine-induced reinstatement (responding)” value in assay [3] (1 mg/kg p.o., FIG. 9) is “sufficient to block cocaine-induced reinstatement”. Besides, the “sensorimotor gating as assessed by inhibition of a startle response after PCP” value in assay [1] (1 mg/kg orally 60 min prior to testing, PCP 0-1.25 mg/kg SC, FIG. 6) is “significant increase in sensorimotor gating”.
In the case of `CCOC1=NC(CSSCC2N=C(OCC)CN=C2OCC)C(OCC)=NC1` (centres unmarked) [Compound 6, Bis[(3,6-Diethoxy-2,5-dihydro-pyrazin-2-yl)-methanethiol]], the “restoration of sensorimotor gating after PCP” value in assay [1] (oral administration (0-1 mg/kg) 60 min prior to testing, prepulse 2, 6, 15 dB above background, FIG. 7) is “significantly restored sensorimotor gating at the highest prepulse intensity”.
